For this assay, the system named is 616215-338-R-J1-PDC complex spheroid viability. Kind of assay: Anticancer human tumor 616215-338-R-J1-PDC patient-derived colon adenocarcinoma cell line growth inhibition [POLQ]. The conditions noted are these: for viability, T/C: stronger effect = lower value. Here is the method: Multicellular complex tumor spheroid response to Polymerase (POL) inhibitors (novobiocin, ART-558, RP6685) in combination with a variety of drugs and investigational agents in selected tumor cell lines
The POL inhibitors (novobiocin, ART-558, and RP6685) were evaluated both individually and in combination with standard of care and investigational anticancer small molecules within a complex spheroid model of solid tumors. . Complex spheroids include a stromal component modeled by human endothelial cells (HUVEC) and fibroblasts modeled by human mesenchymal stem cells (MSCs). The concentration ranges selected for each drug and investigational agent were based upon clinically achievable concentrations if the clinical Cmax of the agent was known.
Compounds. The drugs and investigational agents: novobiocin (NSC847541), ART-558 (NSC835418), RP-6685 (NSC848927), peposertib (NSC802822), ceralasertib (NSC780249), elimusertib (NSC800525), camonsertib (NSC841442), AZD-1390 (NSC803789), olaparib (NSC753686), talazoparib (NSC767125), rucaparib (NSC756644), sotorasib (NSC818433), MRTX-1133 (NSC836407), SN-38 (NSC673596), topotecan (NSC609699), epotoside (NSC141540), doxorubicin (NSC123127), gemcitabine (NSC613327), 5-fluorouracil (NSC19893), paclitaxel (NSC125973), vemurafenib (NSC761431), MSA-2 (NSC828583), SN-011 (NSC837082), adavosertib (NSC754352), prexasertib (NSC758257), carboplatin (NSC241240) and oxaliplatin (NSC266046), were obtained from the National Cancer Institute (NCI) Developmental Therapeutics Program Chemical Repository (21). The FDA-approved anticancer drug set is available from the Developmental Therapeutics Program at https://dtp.cancer.gov/organization/dscb/obtaining/. […] The stock solutions were prepared in dimethyl sulfoxide (DMSO, Sigma-Aldrich, St. Louis, MO, cat. D2650), except for the platinum compounds which were prepared in saline (Quality Biological, Gaithersburg, MD, cat. 114-055-101), at 800-fold the tested concentration and stored at -70 degrees C prior to their use. All drugs and investigational agents were tested over a range starting from a high concentration at or near the clinical Cmax and decreasing in half-log increments. If the clinical Cmax for an agent had not been determined, the highest concentration tested was 10 microM, except for SN-38, which was tested at a high concentration of 1 microM.
Cell Culture. All cells were maintained in an incubator at 37 degrees C and 5% CO2 with 95% humidity. The PDC lines were cultured according to standard operating procedures established by the NCI PDMR (https://pdmr.cancer.gov). Table 3 of the manuscript, lists the cell lines along with the number of the three cell types plated to form the mct-spheroids and media for tumor cell growth. After thawing, all PDC lines, except 997537-175-T-J1-PDC and 415267-285-R-J2-PDC, were cultured in Matrigel-coated flasks prepared with a working solution of 1X Ham's F-12 nutrient mix, without supplementation (Thermo Fisher Scientific, cat. 11765054), 100 U/mL penicillin-streptomycin (Thermo Fisher Scientific, cat. 15140122), and 2.5% Matrigel (Corning Inc., Corning, NY, cat. 354248) for the first three passages. The two PDC lines 997537-175-T-J1-PDC and 415267-285-R-J2-PDC were cultured on uncoated flasks. The 857933-349-R-J2-PDC line was cultured in 6C/Colon 1B media containing advanced DMEM/F-12 (Thermo Fisher Scientific, cat. 12634028), 10 mM HEPES (Thermo Fisher Scientific, cat. 15630080), 1X GlutaMAX supplement (Thermo Fisher Scientific, cat. 35050061), 0.1 mg/mL primocin (InvivoGen, San Diego, CA, cat. ant-pm-2), 10% defined fetal bovine serum, heat inactivated (HyClone Laboratories Inc., Logan, UT, cat. SH30070.03HI), 50% L-WRN conditioned media (ATCC, cat. CRL-3276), 1.25 mM N-Acetyl-L-cysteine (Sigma-Aldrich, cat. A9165), 10 mM nicotinamide (Sigma-Aldrich, cat. N0636), 1X B-27 supplement (Thermo Fisher Scientific, cat. 17504044), 1X N-2 supplement (Thermo Fisher Scientific, cat. […]

Values joined by “and” are separate entries in the source; they are usually repeats but may differ in a detail not shown here. Equal entries are not always repeated.

Our source for the viability, T/C and IC50 values is PubChem BioAssay AID1963843 (Molecular Pharmacology Branch, DTP, NCI, 2024).

One may read the viability, T/C as the result in the treated group divided by that in the control group, in per cent. Broadly, the IC50 is the point on the concentration scale where inhibition reaches its midpoint.
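Further: spheroids exposed to compounds for one week before readout.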
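Wherever viability, T/C is given: percent viability relative to DMSO vehicle wells taken as 100%.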

With `C=CCn1c(=O)c2cnc(Nc3ccc(N4CCN(C)CC4)cc3)nc2n1-c1cccc(C(C)(C)O)n1`, the viability, T/C was 98.4% and 98.6% and 104% (compound 0.00316 µM); 101% and 96.2% and 96.8% (compound 0.01 µM); 105% and 102% and 99.9% (compound 0.0316 µM); 93.8% and 88.6% and 96.6% (compound 0.1 µM); 88.4% and 64% and 54.5% (compound 0.316 µM); 60.4% and 31.4% and 34.6% (compound 1 µM). The IC50 (curve of compound) is > 1 µM and 0.516 µM and 0.41 µM.
Take `CC(=O)O[C@H]1C(=O)[C@@]2(C)[C@H]([C@H](OC(=O)c3ccccc3)[C@]3(O)C[C@H](OC(=O)[C@H](O)[C@@H](NC(=O)c4ccccc4)c4ccccc4)C(C)=C1C3(C)C)[C@]1(OC(C)=O)CO[C@@H]1C[C@@H]2O`: the viability, T/C runs as follows: (compound 0.00949 µM) 39.3% and 41.7% and 86.3%; (compound 0.03 µM) 23.3% and 27.1% and 44.5%; (compound 0.0949 µM) 23.8% and 24.4% and 38.2%; (compound 0.3 µM) 15.6% and 17.9% and 35.5%; (compound 0.949 µM) 18% and 18.2% and 36.7%; (compound 3 µM) 21.7% and 17.8% and 34.3%. The IC50 (curve of compound) was < 0.00949 µM and 0.0258 µM.
Turning to `CC(C)n1c(=O)n(C)c2cnc3cc(F)c(-c4ccc(OCCCN5CCCCC5)nc4)cc3c21`, the viability, T/C is, setting by setting: (compound 0.0316 µM) 112% and 102% and 72.9%; (compound 0.1 µM) 97% and 109% and 75%; (compound 0.316 µM) 106% and 93% and 74.8%; (compound 1 µM) 107% and 94.6% and 79.2%; (compound 3.16 µM) 108% and 101% and 85.2%; (compound 10 µM) 101% and 96% and 72.1%. Also, for the setting “curve of compound”, the IC50 is more than 10 µM.
For `CC1COCCN1c1cc(-c2ccnn2C)c2ccnc(-c3ccn[nH]3)c2n1` (stereo not drawn), the viability, T/C reads like this: (compound 0.0316 µM) 95.3% and 98.7% and 94%; (compound 0.1 µM) 102% and 90.3% and 66%; (compound 0.316 µM) 73.7% and 70.5% and 39.4%; (compound 1 µM) 60.4% and 47.1% and 31.4%; (compound 3.16 µM) 50% and 27.1% and 28.4%; (compound 10 µM) 44.6% and 40.1% and 21.7%.
For `CC1COCCN1c1cc(C2(S(C)(=N)=O)CC2)nc(-c2ccnc3[nH]ccc23)n1` (stereo not drawn), the viability, T/C (compound 0.0316 µM) is 99.9% and 97.9% and 100%; the viability, T/C (compound 0.1 µM) is 107% and 90.8% and 112%; the viability, T/C (compound 0.316 µM) was 95.8% and 93.9% and 108%; the viability, T/C (compound 1 µM) is 99.2% and 99.4% and 95.3%; the viability, T/C (compound 3.16 µM) is 99% and 74.6% and 107%; the viability, T/C (compound 10 µM) was 71.5% and 39.9% and 74.1%. Further, where the note is “curve of compound”, the IC50 is > 10 µM and 7.18 µM.
Turning to `CCCS(=O)(=O)Nc1ccc(F)c(C(=O)c2c[nH]c3ncc(-c4ccc(Cl)cc4)cc23)c1F`, the viability, T/C is 106% and 102% and 108% (compound 0.0316 µM); 97.4% and 107% (2×) (compound 0.1 µM); 105% and 102% and 97.8% (compound 0.316 µM); 107% and 102% and 95.8% (compound 1 µM); 101% (2×) and 91.2% (compound 3.16 µM); 10.8% and 13.5% and 20.5% (compound 10 µM). The IC50 (curve of compound) is 6.07 µM and 6.2 µM and 6.12 µM.
As to `CC[C@@]1(O)C(=O)OCc2c1cc1n(c2=O)Cc2cc3c(CN(C)C)c(O)ccc3nc2-1`, the viability, T/C is, setting by setting: (compound 0.000316 µM) 83.5% and 113% and 93.4%; (compound 0.001 µM) 99.2% and 100% and 96.4%; (compound 0.00316 µM) 99.6% and 109% and 96.2%; (compound 0.01 µM) 97.7% and 101% and 110%; (compound 0.0316 µM) 111% and 70.1% and 103%; (compound 0.1 µM) 82.6% and 39% and 93.5%. In addition, the concentration for half-maximal inhibition (IC50) (curve of compound) was > 0.1 µM and 0.0666 µM.
Regarding `CCc1c2c(nc3ccc(O)cc13)-c1cc3c(c(=O)n1C2)COC(=O)[C@]3(O)CC`, the viability, T/C by setting is: (compound 0.00316 µM) 96.8% and 81.2% and 106%; (compound 0.01 µM) 92.7% and 44.1% and 89.9%; (compound 0.0316 µM) 66.5% and 33.8% and 61.6%; (compound 0.1 µM) 51.2% and 26.8% and 51.4%; (compound 0.316 µM) 29.8% and 16.6% and 34.1%; (compound 1 µM) 16.3% and 9.67% and 18%.
`CNCc1ccc(-c2[nH]c3cc(F)cc4c3c2CCNC4=O)cc1`: the viability, T/C by setting is: (compound 0.0316 µM) 92.7% and 108% and 87.4%; (compound 0.1 µM) 99.1% and 101% and 106%; (compound 0.316 µM) 102% and 104% and 96.3%; (compound 1 µM) 96.4% and 106% and 107%; (compound 3.16 µM) 103% and 107% and 96.9%; (compound 10 µM) 90.2% and 26.3% and 83.5%. Besides, the concentration for half-maximal inhibition (IC50) (curve of compound) was > 10 µM and 7.08 µM.
For the molecule `COC1C(OC(N)=O)C(O)C(Oc2ccc3c(O)c(NC(=O)c4ccc(O)c(CC=C(C)C)c4)c(=O)oc3c2C)OC1(C)C` (stereo not drawn), the viability, T/C runs as follows: (compound 0.0316 µM) 101% [middle of 13 runs]; (compound 0.1 µM) 102% [middle of 12 runs]; (compound 0.316 µM) 103% [middle of 13 runs]; (compound 1 µM) 99.2% [middle of 13 runs]; (compound 3.16 µM) 101% [middle of 13 runs]; (compound 10 µM) 100% [middle of 13 runs]. Moreover, the IC50 (compound alone, run of 11/27/2023) was more than 10 µM.
